# Laboratory results reported in patent publication US12649980B2, “Three-dimensional surface for protein and small molecule microarrays” (The Johns Hopkins University, priority 2019, dated 2026).
# How the values were obtained:
# GLUT1 [1] = target: T1, GLUT1 (Homo sapiens, UniProt P11166); assay: rapafucin 3D microarray screen with GLUT1-containing cell lysate; assay type: binding; conditions: signal-to-background ratio, 3D surface, lysate of GLUT1-overexpressing HEK293T; hit if SBR > 3
# T1 construct: The full-length human SLC2A1, SLC2A3, and SLC2A4 genes were PCR amplified and inserted into pLenti6M vector 2; expressed in transfected cells
# T1 sequence (P11166 1-492): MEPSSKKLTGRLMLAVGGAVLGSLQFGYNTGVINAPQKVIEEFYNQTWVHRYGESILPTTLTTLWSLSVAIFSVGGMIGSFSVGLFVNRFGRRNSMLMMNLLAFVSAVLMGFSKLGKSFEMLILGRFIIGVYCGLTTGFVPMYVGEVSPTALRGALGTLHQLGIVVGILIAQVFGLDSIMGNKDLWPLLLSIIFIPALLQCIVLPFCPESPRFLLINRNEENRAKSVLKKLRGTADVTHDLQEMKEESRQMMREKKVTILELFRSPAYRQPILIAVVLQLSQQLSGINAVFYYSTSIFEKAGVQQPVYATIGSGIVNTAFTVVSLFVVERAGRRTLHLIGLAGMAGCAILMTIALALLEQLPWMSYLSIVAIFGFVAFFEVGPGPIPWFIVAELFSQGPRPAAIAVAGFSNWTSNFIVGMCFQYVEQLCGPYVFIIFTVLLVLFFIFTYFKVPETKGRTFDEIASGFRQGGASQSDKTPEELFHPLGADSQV
# Source text: (§1) Once stock solutions of the rapafucin library were arrayed on the 2D or 3D surface and most of solvent carrier was evaporated, the crosslinking reaction was initiated by irradiating the surfaces with 365-nm wavelength UV light. Kawatani and Osada, Medchemcomm 2014, 5, 277-287. […] To screen for GLUT1-interacting rapafucins, GLUT1 was stably overexpressed in HEK293T cells and generated cell lysates containing detergent-solubilized recombinant GLUT1 (FIG. 10). The GLUT1-containing cell lysate was then incubated on both 2D and 3D rapafucin microarrays. After washing the slides to remove unbound proteins, the bound GLUT1 protein was detected with anti-GLUT1 antibodies, followed by visualization with Cy5-labeled secondary antibodies using a microarray scanner. Rapafucins were scored as positive hits when the corresponding SBR was greater than 3. Based on this criterion, a total of 17 rapafucin hits and one positive control BAY-876, a specific GLUT1 inhibitor, Siebeneicher et al., ChemMedChem 2016, 11, 2261-2271, were identified on the 3D rapafucin microarray. In contrast, only one hit (WL13-F11, also among the 17 hits identified from the 3D rapafucin microarray) was identified on the 2D rapafucin microarray (Table 1, FIG. 11).
# The amine substrates (Arrayit, SMM) were immerged in a mixture of 2-bromoisobutyryl bromide (BIBB, 0.1 mM, as initiator) and propionyl bromide (10 mM, as horizontal spacer) with triethylamine (15 mM) in DCM for 4 hours. A degassed polymerization reaction mixture, containing copper (II) chloride dihydrate (CuCl2, 4 mmol), 2,2′-bipyridine (2 mmol), 75 mmol monomers mixture of 2-(dimethylamino)ethyl methacrylate (DMAEMA) and poly(ethylene glycol) methacrylate (PEGMA Mn 360) in 500 mL Milli-Q/MeOH, was mixed with freshly made ascorbic acid (4 mmol). The mixture was applied to 50 slides for 6 hours under the argon atmosphere for the surface-initiated polymerization. A gradient ratio of PEGMA and DMAEMA was set, including 10:0, 8:2, 5:5, 2:8 and 0:10 for an optimization purpose. The terminals of the brushes were further functionalized by N,N′-disuccinimidyl carbonate (DSC, 10 mM) and 4-dimethylaminopyridine (DMAP,10 mM) in DMF overnight to form succinimidyl carbonate intermediate, and, successively, diazirine linker 1 (10 mM) and N,Ndiisopropylethylamine (DIPEA, 50 mM) in DMF for 2 hours to couple the photoaffinity linker in dark at room temperature. At the end, the substrates were immerged in a 50 mM ethanolamine in DMF to block the residual carboxylic moiety. The slides were thoroughly washed by DMF, EtOH and DCM and dried in a fuming cupboard and ready for spotting.
# 10 mM of rapafucins in DMSO from the library were spotted onto the slides with a high-precision microarrayer (Nanoprint, Arrayit, CA) for a desired pattern in dark, which was loaded with 16 100-μm diameter micro-spotting pins. The pin heads were thoroughly washed and sonicated in ethanol and dried for 4 times under a compassed air between each sample loading. After overnight evaporation, the slides were exposed to 365-nm wavelength UV irradiation for 4 J/cm^2 by CL-1000L UV crosslinker (UVP, CA) for rapafucins covalent immobilization. The slides were ultrasonic cleaned successively in DCM, MeOH and Milli-Q water and stored in a −20° C. freezer.
# (§2) In the optimization experiments, the slides were incubated with 50 nM purified recombinant FKBP12 for 1 hour, while in the GLUT1 screening, 10 mg/mL of cell lysate containing DDM-solubilized GLUT1 from GLUT1 overexpressed HEK293T was incubated for 1 hour. Successively, primary antibody and CY5 labeled secondary antibody were added for 1 hour. The chips were washed in buffer A for 5 mins 3 times after the sample and antibodies incubation. After centrifugation, the dried chips were scanned by a microarray scanner (Genepix, US) at 635-nm wavelength. The final result was analyzed by GenePix software.
# GLUT1 [2] = target: T1, GLUT1; assay: rapafucin 2D microarray screen with GLUT1-containing cell lysate; assay type: binding; conditions: signal-to-background ratio, 2D surface, same lysate and conditions
# Source text: as §1, §2
# A549 cells = assay: [3H]-2DG uptake assay in A549 cells; assay type: cell-based, human; conditions: 10 min incubation with compound, mean ± s.d., n = 3
# Experimental: To determine which of the 17 rapafucin hits inhibited the transporter activity of GLUT1, an orthogonal glucose uptake assay using 2-deoxy-D-[3H] glucose ([3H]-2DG), a nonhydrolyzable, radioactive glucose analog, was employed. Each hit was separately incubated with A549 cells for 10 min before the amount of [3H]-2DG taken up by the cells was measured using scintillation counting. […] The effect of JW11-D2 on uptake of [3H]-2DG in human red blood cells that exclusively express GLUT1 was then determined. Helgerson and Carruthers, J. Biol. Chem. 1987, 262, 5464-5475. […] To further improve the potency of JW11-D2, a structure-activity relationship (SAR) study was performed by synthesizing 21 new analogs of JW11-D2 using different amino acid building blocks.
# (§3) The inhibitory activity of compounds on glucose transport was analyzed by measuring the cell uptake of [3H]-2DG as previously described. Ulanovskaya et al., Chem. Biol. 2011, 18, 222-230. Briefly, cells were washed twice and incubated in low-glucose medium for 10 min. Cells were added drugs and incubated for another 10 min before adding [3H]-2DG. After 10 min incubation with [3H]-2DG, cells were washed twice and lysed with 0.2 N NaOH plus 0.2% SDS. The cell lysate was transferred to a new tube containing 1 mL of optiphase supermix. Glucose uptake was quantified with a scintillation counter.
# DLD1 WT = assay: [3H]-2DG uptake in DLD1 WT cells; assay type: cell-based
# Experimental: as §3
# DLD1 GLUT1 KO = assay: [3H]-2DG uptake in DLD1 GLUT1 knockout cells; assay type: cell-based; conditions: for inhibitory activity in GLUT1 knock out cells: DLD-1 GLUT1 knock out versus wild type
# Experimental: as §3
# GLUT1 [3] = target: T1, GLUT1; assay: biotin-RgA pull-down and biotin probe competition binding assay, GLUT1; conditions: lysate of HEK293T overexpressing GLUT1, Western blot
# Experimental: Next, the binding affinity of RgA for GLUT1 was determined using a RgA biotin pull-down assay. A biotin-RgA conjugate was synthesized by tethering the biotin moiety through carbon:carbon double bond in the FKBP-binding domain of RgA (FIG. 13). […] Using the biotin-RgA conjugate, a pulldown experiment with cell lysate containing detergent-solubilized GLUT1 protein prepared from HEK293T cells overexpressing GLUT1 was performed, followed by Western blot analysis with a GLUT1-specific antibody.
# The estimation of Kd value for RgA was determined with the biotin probe competition binding assay. […] After western blot, band intensities were quantified by densitometry analysis using Image J software. The assay was repeated three times. GraphPad Prism (v4.03) software was used to determine apparent Kd value for RgA using a nonlinear regression.
# GLUT3 = GLUT3 (Homo sapiens, UniProt P11169); assay: biotin-RgA pull-down assay, GLUT3; conditions: lysate of HEK293T overexpressing GLUT3, Western blot
# Experimental: (§4) It was further determined whether RgA is specific for GLUT1 using a pair of isogenic cell lines.
# (§5) GLUT1 or other isoforms overexpression HEK293T cells were washed once in buffer A (10 mM Tris-HCl, 150 mM KCl, 5 mM MgCl2, 1 mM EGTA, pH 7.4). To extract GLUT1 or isoforms protein, cells were mixed in buffer C (10 mM Tris-HCl, 150 mM KCl, 5 mM MgCl2, 1% DDM, 5% glycerol, 1 mM EGTA, protease inhibitor, pH 7.4) and incubated on ice for 1 h with frequent mixing. The supernatant was collected by centrifugation at 17,000 g for 10 min at 4° C., and then diluted four-fold in buffer A plus 5% glycerol to reduce the concentration of DDM. The diluted supernatant was quantified by protein assay kit and pre-incubated with streptavidin agarose beads at 4° C. for 30 min to remove the endogenous streptavidin-binding proteins. The supernatant was collected by centrifugation at 2,000 rpm for 1 min at 4° C., and diluted to 10 mg/mL for pull-down experiment. For a typical biotin pull- down reaction, 300 μL of supernatant was pretreated with competitor or equal volume of DMSO (as noted hereinabove) for 30 min, before the addition of RgA biotin probe or DMSO (as noted hereinabove). After incubation at 4° C. for 1 h with frequent mixing, 30 μL of streptavidin agarose beads in buffer A was added, and incubation was continued for 2 h. […]
# GLUT4 = GLUT4 (Homo sapiens, UniProt P14672); assay: biotin-RgA pull-down assay, GLUT4; conditions: lysate of HEK293T overexpressing GLUT4, Western blot
# Experimental: as §4, §5
# [4] = test system: glutathione S-transferases; conditions: Yamada and Kaplowitz 1980; cited from earlier work
# Sequence of GLUT3 (P11169 whole entry): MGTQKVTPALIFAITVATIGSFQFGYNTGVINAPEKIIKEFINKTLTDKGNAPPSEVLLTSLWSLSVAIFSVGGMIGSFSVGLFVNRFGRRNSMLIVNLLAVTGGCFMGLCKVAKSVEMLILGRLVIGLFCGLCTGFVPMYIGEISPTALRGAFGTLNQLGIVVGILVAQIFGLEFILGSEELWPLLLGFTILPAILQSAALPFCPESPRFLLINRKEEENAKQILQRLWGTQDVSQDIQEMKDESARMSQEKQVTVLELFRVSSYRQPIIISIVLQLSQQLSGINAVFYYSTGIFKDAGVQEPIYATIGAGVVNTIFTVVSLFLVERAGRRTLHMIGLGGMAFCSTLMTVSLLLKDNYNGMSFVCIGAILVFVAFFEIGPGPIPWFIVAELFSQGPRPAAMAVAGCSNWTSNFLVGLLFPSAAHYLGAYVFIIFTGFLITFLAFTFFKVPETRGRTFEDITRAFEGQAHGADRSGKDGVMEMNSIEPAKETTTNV
# Sequence of GLUT4 (P14672 whole entry): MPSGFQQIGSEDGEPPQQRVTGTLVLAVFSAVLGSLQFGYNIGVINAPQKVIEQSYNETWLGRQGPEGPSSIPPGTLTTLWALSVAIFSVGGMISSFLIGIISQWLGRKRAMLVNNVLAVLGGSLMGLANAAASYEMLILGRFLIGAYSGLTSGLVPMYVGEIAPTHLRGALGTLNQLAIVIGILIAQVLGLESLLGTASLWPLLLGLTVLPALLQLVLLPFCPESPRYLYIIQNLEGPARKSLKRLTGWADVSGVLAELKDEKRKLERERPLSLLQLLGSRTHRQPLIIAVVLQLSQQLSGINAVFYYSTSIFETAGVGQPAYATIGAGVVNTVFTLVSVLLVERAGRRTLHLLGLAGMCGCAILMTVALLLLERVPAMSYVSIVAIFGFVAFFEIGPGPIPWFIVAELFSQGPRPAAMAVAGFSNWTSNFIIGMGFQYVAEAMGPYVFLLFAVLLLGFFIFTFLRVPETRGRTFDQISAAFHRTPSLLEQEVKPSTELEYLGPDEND
SMILES,3D SBR (GLUT1 [1]),2D SBR (GLUT1 [2]),IC50 (A549 cells) [nM],other results
COc1ccc(CC[C@H]2OC(=O)[C@@H]3CCCCN3C(=O)C(=O)C(C)(C)COC(=O)C=CCCN(C)C(=O)CNC(=O)CN(C)C(=O)[C@H](Cc3ccc(O)cc3)NC(=O)[C@@H](Cc3ccccc3)N(C)C(=O)COc3cccc2c3)cc1OC [WL03-G11],5.1 ± 0.7,<3.0,> 3000,–
CCC(C)C1C(=O)NC(Cc2ccccc2)C(=O)N(C)CCC=CC(=O)OCC(C)(C)C(=O)C(=O)N2CCCCC2C(=O)OC(CCc2ccc(OC)c(OC)c2)c2cccc(c2)OCC(=O)N(C)CC(=O)NC(Cc2ccc(F)cc2)C(=O)N1C (stereo not shown) [HP05-F5],7.9 ± 2.6,<3.0,> 3000,–
Cc1c(NC(=O)c2cc(C(N)=O)nc3cc(F)ccc23)c(C(F)(F)F)nn1Cc1ccc(C#N)cc1 [BAY-876],3.2 ± 0.74,<3.0,–,"EC50 (DLD1 WT; Homo sapiens, DLD-1, DLD1 wild type): 8 ± 1.1 nM; inhibitory activity in GLUT1 knock out cells (DLD1 GLUT1 KO): lost its inhibitory activity; EC50 (DLD1 GLUT1 KO; Homo sapiens, DLD-1, DLD1 GLUT1 knockout): > 1000 nM"
CCC(C)C1C(=O)NCC(=O)N(C)CCC(SCCCSCC(=O)NCCOCCOCCNC(=O)CCCCC2SCC3NC(=O)NC32)CC(=O)OCC(C)(C)C(=O)C(=O)N2CCCCC2C(=O)OC(CCc2ccc(OC)c(OC)c2)c2cccc(c2)NC(=O)CCC(=O)N(C)C(CC(C)C)C(=O)NC(Cc2ccccc2)C(=O)N1C (stereo not shown) [biotin-RgA],–,–,211,pulldown of GLUT1 (GLUT1 [3]): capable of pulling down GLUT1; pulldown of GLUT3 (GLUT3): able to pull down both GLUT3 and GLUT4; pulldown of GLUT4 (GLUT4): able to pull down both GLUT3 and GLUT4
C=C(CC)C(=O)c1ccc(OCC(=O)O)c(Cl)c1Cl [ethacrynic acid],–,–,–,proportion of bound ethacrynic acid that was bound covalently [4]: 13.5%
CCCC[C@H]1C(=O)N[C@@H](Cc2ccccc2)C(=O)N(C)CCC=CC(=O)OCC(C)(C)C(=O)C(=O)N2CCCC[C@H]2C(=O)O[C@H](CCc2ccc(OC)c(OC)c2)c2cccc(c2)NC(=O)CCC(=O)N(C)[C@H](Cc2ccccc2)C(=O)N[C@@H](Cc2ccc(F)cc2)C(=O)N1C [HP05-A9],3.4 ± 1.4,<3.0,> 3000,–
CCCC[C@H]1C(=O)N2CCC[C@@H]2C(=O)N(C)CCC=CC(=O)OCC(C)(C)C(=O)C(=O)N2CCCC[C@H]2C(=O)O[C@H](CCc2ccc(OC)c(OC)c2)c2cccc(c2)OCC(=O)N(C)CC(=O)N[C@H](Cc2ccc(NC(=O)OC(C)(C)C)cc2)C(=O)N1C [WL11-E7],4.8 ± 0.5,<3.0,> 3000,–
CCCC[C@H]1C(=O)N2CCC[C@@H]2C(=O)N(C)CCC=CC(=O)OCC(C)(C)C(=O)C(=O)N2CCCC[C@H]2C(=O)O[C@H](CCc2ccc(OC)c(OC)c2)c2cncc(c2)OCC(=O)N(C)CC(=O)N[C@@H](Cc2ccccc2)C(=O)N1C [WL11-G9],3.9 ± 0.3,<3.0,> 3000,–
COc1ccc(CC[C@H]2OC(=O)[C@@H]3CCCCN3C(=O)C(=O)C(C)(C)COC(=O)C=CCCN(C)C(=O)[C@H](Cc3ccccc3)N(C)C(=O)CCNC(=O)CN(C)C(=O)[C@H](Cc3ccc(O)cc3)NC(=O)COc3cccc2c3)cc1OC [WL05-D8],6.4 ± 1.8,<3.0,> 3000,–
COc1ccc(CC[C@H]2OC(=O)[C@@H]3CCCCN3C(=O)C(=O)C(C)(C)COC(=O)C=CCCN(C)C(=O)[C@H]3CCCN3C(=O)[C@H](C(C)C)N(C)C(=O)[C@H](Cc3ccc([N+](=O)[O-])cc3)NC(=O)CN(C)C(=O)COc3cccc2c3)cc1OC [WL12-G5],8.8 ± 2.0,<3.0,> 3000,–
"C=C1[C@@H](C)[C@H]2[C@H](Cc3ccccc3)NC(=O)[C@]23OC(=O)/C=C/[C@H](O)CCC[C@@H](C)C/C=C/[C@H]3[C@@H]1O [Cytochalasin B, cytochalasin B]",–,–,–,EC50 (DLD1 WT; DLD1 wild type): 545 ± 40.5 nM; EC50 (DLD1 GLUT1 KO; DLD1 GLUT1 knockout): 390 ± 32.7 nM; inhibitory activity in GLUT1 knock out cells (DLD1 GLUT1 KO): maintained its inhibitory activity
